Test results: patent publication US11274101B2, “Heterocyclic compound” (Takeda Pharmaceutical Company Limited, priority 2017, dated 2022)

How the values were obtained:
[1] = tested on: intracerebral 2-AG and arachidonic acid; test: Measurement of intracerebral 2-AG and arachidonic acid concentrations after oral administration; assay type: in vivo, mouse (C57BL/6J); conditions: for 2-AG concentration / arachidonic acid concentration: male C57BL/6J mice, 1 mg/kg by gavage, cerebrum isolated 1 hour after administration; for 2-AG concentration: control 13.5; for arachidonic acid concentration: control 203.1; for intracerebral 2-AG concentration compared to control / intracerebral arachidonic acid concentration compared to control / migration into brain: oral administration to C57BL/6J mice
Method: As the mouse, 8-week-old male C57BL/6J mice (CLEA Japan, Inc.) were used (6 mice/group). Administration solutions were prepared by suspending the test compounds (compound 1 (compound of Example 16), compound 2 (compound of Example 18) and compound 3 (compound of Example 46)) in 0.5% methylcellulose solution (Wako Pure Chemical Industries, Ltd.). The dose of the test compound was prepared to be 1 mg/kg body weight/10 mL. The test compounds were administered by gavage at 1 mg/kg body weight. The cerebrum was isolated after the administration of the test compound (isolation time after the administration of the test compound is shown in Table 3), and the cerebrum hemisphere was extracted. The obtained cerebrum hemisphere was frozen on dry ice, and the frozen tissue weight was measured.
The cerebral tissue was homogenized with 4-fold (v/w) of isopropanol (IPA), and double diluted with IPA. To the diluted sample (200 μL) was added internal standard solution (5 μL) ([5,6,8,9,11,12,14,15-D8]-(5Z,8Z,11Z,14Z)-5,8,11,14-eicosatetraenoic acid (AA-d8, 0.5 nmol/mL IPA) and [5,6,8,9,11,12,14,15-D8]-(5Z,8Z,11Z,14Z)-5,8,11,14-eicosatetraenoyl-2-glycerol ester (2-AG-d8, 0.5 nmol/mL IPA)), and the mixture was centrifuged at 15000 rpm for 5 min. The supernatant was injected to liquid chromatography mass spectrometer for quantitative analysis.
For liquid chromatography, Shimadzu LC20A system (Shimadzu Corporation) was used. The separation was performed by gradient elution method with mobile phase A (10 mmol/L HCOONH4/HCOOH (100:0.2, v/v)) and mobile phase B (ethanol/IPA (3:2, v/v)) using Shim-pack XR-ODS (2.2 μm, 2.0×30 mm, Shimadzu Corporation) at column temperature of 50° C., at flow rate of 0.5 mL/min. The gradient conditions are as follows: 0-1 min, 1% B; 1-1.2 min, 1-55% B; 1.2-2.7 min, 55-75% B; 2.7-3.5 min, 75-99% B; 3.5-6 min, 99% B; 6-8 min, 1% B.
For mass spectrometer, API5000 (AB SCIEX) was used. The eluate from the liquid chromatography was directly ionized by turbospray ionization method, where (5Z,8Z,11Z,14Z)5,8,11,14-eicosatetraenoic acid (AA) and AA-ds were measured by negative ionization mode, and (5Z,8Z,11Z,14Z)5,8,11,14-eicosatetraenoyl-2-glycerol ester (2-AG) and 2-AG-d8 were measured by positive ionization mode.
A solution for calibration curve was prepared to the concentration of 2, 5, 10, 20, 50, 100, 200, 500, 1000 nmol/mL of acetonitrile. These solutions (10 μL) was mixed with 200 μL of IPA and 5 μL of internal standard solution, and the mixture was centrifuged at 15000 rpm for 5 min, and the supernatant was injected to liquid chromatography mass spectrometer. Liner regression with 1/x^2 weighting was used for the calibration curve fitting, and the quantitativity was confirmed by accuracy of 100±20% and R^2>0.99.

[2] = biological target: T1, His-hMAGL (recombinant polyhistidine tagged human MAGL protein) (Homo sapiens, UniProt Q99685); test: Measurement of MAGL inhibitory activity (arachidonic acid production from 2-arachidonylglycerol, RapidFire-mass spectrometry); assay type: biochemical; conditions: test compound 10 μM; MAGL inhibitory rate
T1 construct: made in house; host or cells: E. coli BL21(DE3)
T1 sequence (Q99685 1-303): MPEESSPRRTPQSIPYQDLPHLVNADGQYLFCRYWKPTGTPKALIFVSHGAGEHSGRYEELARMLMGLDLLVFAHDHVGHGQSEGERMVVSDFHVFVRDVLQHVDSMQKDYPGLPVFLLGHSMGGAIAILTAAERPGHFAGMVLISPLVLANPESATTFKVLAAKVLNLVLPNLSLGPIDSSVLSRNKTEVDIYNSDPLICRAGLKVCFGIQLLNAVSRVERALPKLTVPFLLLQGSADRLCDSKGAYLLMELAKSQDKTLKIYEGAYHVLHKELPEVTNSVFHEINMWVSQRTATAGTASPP
Method: The His-hMAGL obtained above was diluted with enzyme reaction buffer (10 mM Tris-HCl, pH 7.5, 1 mM EDTA, 0.025 (w/v) % Triton X-100, 0.01% Bovine serum albumin) to a concentration of 7.5 ng/mL. To each well of a 384 well assay plate (Greiner 781280) was added a solution (5 μL) of a test compound dissolved in dimethyl sulfoxide (DMSO), which was diluted with the above-mentioned enzyme reaction buffer, then His-hMAGL solution (5 μL) diluted to a concentration of 7.5 ng/mL was added, and the mixture was incubated at room temperature for 60 min. Thereafter, to each well was added 5 μL of 150 μM 2-arachidonylglycerol (Tocris Bioscience), and the mixture was incubated at room temperature for 10 min. Then, 10 μL of 2% formic acid (Wako Pure Chemical Industries, Ltd.) was added to stop the reaction. Furthermore, acetonitrile (50 μL) containing 3 μM arachidonic acid-d8 (Cayman Chemical Company) was added and the mixture was stirred.
The amount of arachidonic acid in the obtained enzyme reaction mixture was calculated by measuring by RapidFire-mass spectrometry and correcting by the amount of arachidonic acid-d8. High Throughput online solid phase extraction was performed using RapidFire 300™ system (Agilent Technologies, Inc.). Samples were loaded on SPE C4 cartridge (Agilent Technologies, Inc.) and desalted with 0.2 (v/v) % acetic acid (Wako Pure Chemical Industries, Ltd.) in ultrapure water/acetonitrile (70/30, v/v) at a flow rate of 1.5 mL/min, eluted at a flow rate of 0.5 mL/min with 0.2 (v/v) % acetic acid dissolved in acetonitrile/ultrapure water (90/10, v/v), and injected into the mass spectrometry part. The injection needle was washed with ultrapure water (500 millisecond) and acetonitrile (500 millisecond) to minimize carry-over. The suction time (injection loop 5 μL), load/cleansing time, elution time and re-equilibration time were adjusted to 300, 3000, 4250 and 1000 milliseconds, respectively, and the total cycle time was adjusted to about 10.0 seconds. The RapidFire300 system was controlled by RapidFire UI software version 3.6 (Agilent Technologies, Inc.).
The mass spectrometry of the resultant product was performed using API4000™ triple quadrupole mass spectrometer (AB SCIEX) equipped with an electrospray ion sauce (TurboIon Spray™) in a negative selected reaction monitoring (SRM) mode. The conditions of SRM are shown below. The parameters of the instrument were optimized as follows: capillary temperature 600° C., ion spray voltage −4.5 kV, collision gas 8, curtain gas 15 psi, ion source gas 1 60 psi, ion source gas 2 60 psi. The mass spectrometer was controlled by Analyst™ software version 1.5.1 (AB SCIEX). The peak area integration was analyzed using RapidFire integrator software version 3.6 (Agilent Technologies, Inc.).
MAGL inhibitory rate (%) was calculated according to the following calculation formula. (1-(arachidonic acid production amount of test compound addition group−arachidonic acid production amount of enzyme-free group)+(arachidonic acid production amount of test compound-free group−arachidonic acid production amount of enzyme-free group))×100

migration into brain [1] | inhibition at 10 µM [2] [%] | Structure (SMILES) | 2-AG concentration [1] [nmol/g] | arachidonic acid concentration [1] [nmol/g] | intracerebral 2-AG concentration compared to control [1] | intracerebral arachidonic acid concentration compared to control [1]
migrated into brain | 100 | O=C1NC2(CO1)CN(C(=O)O[C@H]1C[C@@H](COc3ccc(F)c(F)c3F)C1)C2 [Example 16, cis-3-((2,3,4-trifluorophenoxy)methyl)cyclobutyl 6-oxo-7-oxa-2,5-diazaspiro[3.4]octane-2-carboxylate] | 82.3 | 119.8 | increased | decreased
migrated into brain | 102 | O=C1NC2(CO1)CN(C(=O)O[C@H]1C[C@@H](COc3c(F)cc(F)cc3F)C1)C2 [Example 18, cis-3-((2,4,6-trifluorophenoxy)methyl)cyclobutyl 6-oxo-7-oxa-2,5-diazaspiro[3.4]octane-2-carboxylate] | 128.7 | 84.3 | increased | decreased
migrated into brain | 102 | O=C1NC2(CO1)CN(C(=O)O[C@H]1C[C@@H](Oc3c(F)cc(F)cc3F)C1)C2 [Example 46, cis-3-(2,4,6-trifluorophenoxy)cyclobutyl 6-oxo-7-oxa-2,5-diazaspiro[3.4]octane-2-carboxylate] | 79.0 | 138.0 | increased | decreased
 | 101 | Cc1ccc(O[C@H]2C[C@@H](OC(=O)N3CC4(COC(=O)N4)C3)C2)c(F)c1 [Example 56, cis-3-(2-fluoro-4-methylphenoxy)cyclobutyl 6-oxo-7-oxa-2,5-diazaspiro[3.4]octane-2-carboxylate] |  |  |  | 
 | 100 | O=C1NC2(CO1)CN(C(=O)O[C@H]1C[C@@H](Oc3cc(F)c(F)cc3F)C1)C2 [Example 57, cis-3-(2,4,5-trifluorophenoxy)cyclobutyl 6-oxo-7-oxa-2,5-diazaspiro[3.4]octane-2-carboxylate] |  |  |  | 
 | 93 | C[C@]1(OC(=O)N2CC3(COC(=O)N3)C2)C[C@@H](OCc2ccccc2)C1 [Example 58, cis-3-(benzyloxy)-1-methylcyclobutyl 6-oxo-7-oxa-2,5-diazaspiro[3.4]octane-2-carboxylate] |  |  |  | 
 | 99 | C[C@]1(OC(=O)N2CC3(COC(=O)N3)C2)C[C@H](OCc2ccccc2)C1 [Example 59, trans-3-(benzyloxy)-1-methylcyclobutyl 6-oxo-7-oxa-2,5-diazaspiro[3.4]octane-2-carboxylate] |  |  |  | 
 | 98 | C[C@]1(OC(=O)N2CC3(COC(=O)N3)C2)C[C@@H](Oc2c(F)cc(F)cc2F)C1 [Example 60, cis-1-methyl-3-(2,4,6-trifluorophenoxy)cyclobutyl 6-oxo-7-oxa-2,5-diazaspiro[3.4]octane-2-carboxylate] |  |  |  | 
 | 100 | C[C@]1(OC(=O)N2CC3(COC(=O)N3)C2)C[C@H](Oc2c(F)cc(F)cc2F)C1 [Example 61, trans-1-methyl-3-(2,4,6-trifluorophenoxy)cyclobutyl 6-oxo-7-oxa-2,5-diazaspiro[3.4]octane-2-carboxylate] |  |  |  | 
 | 99 | O=C1NC2(CO1)CN(C(=O)O[C@H]1C[C@H](OCc3ccc(C(F)(F)F)cc3F)C1)C2 [Example 62, trans-3-((2-fluoro-4-(trifluoromethyl)benzyl)oxy)cyclobutyl 6-oxo-7-oxa-2,5-diazaspiro[3.4]octane-2-carboxylate] |  |  |  | 
 | 100 | C[C@]1(Oc2ccc(F)cc2Cl)C[C@@H](OC(=O)N2CC3(COC(=O)N3)C2)C1 [Example 63, cis-3-(2-chloro-4-fluorophenoxy)-3-methylcyclobutyl 6-oxo-7-oxa-2,5-diazaspiro[3.4]octane-2-carboxylate] |  |  |  | 
